In patent US12319664B2, “Herbicidally active 3-phenylisoxazoline-5-carboxamides of cyclopentenylcarboxylic acid derivatives” (Bayer Aktiengesellschaft, priority 2018, dated 2025):

Tests used:
STEME [1] = test: Pre-emergence herbicidal action against STEME; format: in vivo, Stellaria media; conditions: application rate 80 g/ha
From the text: (§1) 1. Pre-emergence herbicidal action against harmful plants and crop plant compatibility Seeds of monocotyledonous and dicotyledonous weed plants and crop plants are placed in plastic or wood-fibre pots and covered with soil. The compounds of the invention, formulated in the form of wettable powders (WP) or as emulsion concentrates (EC), are then applied onto the surface of the covering soil as aqueous suspension or emulsion with addition of 0.5% additive at a water application rate of 600 l/ha (converted). After the treatment, the pots are placed in a greenhouse and kept under good growth conditions for the trial plants. After about 3 weeks, the effect of the preparations is scored visually in comparison with untreated controls as percentages. For example, 100% activity=the plants have died, 0% activity=like control plants. [table]

POLCO [2] = test: Post-emergence herbicidal action against POLCO; format: in vivo, Polygonum convolvulus; conditions: application rate 80 g/ha, rated visually about 3 weeks after treatment
How it was run: (§2)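 Test plants grown from seed in greenhouse pots of sandy loam were treated post-emergence at the one-leaf stage. Damage, from 0% (like controls) to 100% (plants died), was assessed visually about 3 weeks later.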

PHBPU [3] = test: Pre-emergence herbicidal action against PHBPU; format: in vivo, Pharbitis purpurea; conditions: application rate 80 g/ha
From the text: as §1

ALOMY [4] = test: Post-emergence herbicidal action against ALOMY; format: in vivo, Alopecurus myosuroides; conditions: application rate 80 g/ha, rated visually after about 3 weeks
How it was run: as §2

SETVI [5] = test: Post-emergence herbicidal action against SETVI; format: in vivo, Setaria viridis; conditions: application rate 80 g/ha, rated visually after about 3 weeks
How it was run: as §2

VIOTR [6] = test: Pre-emergence herbicidal action against VIOTR; format: in vivo, Viola tricolor; conditions: application rate 80 g/ha
From the text: as §1

STEME [7] = test: Post-emergence herbicidal action against STEME; format: in vivo, Stellaria media; conditions: application rate 80 g/ha, rated visually about 3 weeks after treatment
How it was run: as §2

AVEFA [8] = test: Post-emergence herbicidal action against AVEFA; format: in vivo, Avena fatua; conditions: application rate 80 g/ha, rated visually after about 3 weeks
How it was run: as §2

POLCO [9] = test: Pre-emergence herbicidal action against POLCO; format: in vivo, Polygonum convolvulus; conditions: application rate 80 g/ha
From the text: as §1

ECHCG [10] = test: Pre-emergence herbicidal action against ECHCG; format: in vivo, Echinochloa crus-galli; conditions: application rate 80 g/ha, scored visually after about 3 weeks vs untreated controls (100% = plants have died, 0% = like control plants)
From the text: as §1

HORMU [11] = test: Post-emergence herbicidal action against HORMU; format: in vivo, Hordeum murinum; conditions: application rate 80 g/ha
How it was run: as §2

ALOMY [12] = test: Pre-emergence herbicidal action against ALOMY; format: in vivo, Alopecurus myosuroides; conditions: application rate 80 g/ha, scored visually after about 3 weeks vs untreated controls (100% = plants have died, 0% = like control plants)
From the text: as §1

AMARE [13] = test: Post-emergence herbicidal action against AMARE; format: in vivo, Amaranthus retroflexus; conditions: application rate 80 g/ha, rated visually about 3 weeks after treatment
How it was run: as §2

AMARE [14] = test: Pre-emergence herbicidal action against AMARE; format: in vivo, Amaranthus retroflexus; conditions: application rate 80 g/ha
From the text: as §1

LOLRI [15] = test: Post-emergence herbicidal action against LOLRI; format: in vivo, Lolium rigidum; conditions: application rate 80 g/ha, rated visually after about 3 weeks
How it was run: as §2

VIOTR [16] = test: Post-emergence herbicidal action against VIOTR; format: in vivo, Viola tricolor; conditions: application rate 80 g/ha, rated visually about 3 weeks after treatment
How it was run: as §2

LOLRI [17] = test: Pre-emergence herbicidal action against LOLRI; format: in vivo, Lolium rigidum; conditions: application rate 80 g/ha, scored visually after about 3 weeks vs untreated controls (100% = plants have died, 0% = like control plants)
From the text: as §1

HORMU [18] = test: Pre-emergence herbicidal action against HORMU; format: in vivo, Hordeum murinum; conditions: application rate 80 g/ha
From the text: as §1

ECHCG [19] = test: Post-emergence herbicidal action against ECHCG; format: in vivo, Echinochloa crus-galli; conditions: application rate 80 g/ha, rated visually after about 3 weeks
How it was run: as §2

SETVI [20] = test: Pre-emergence herbicidal action against SETVI; format: in vivo, Setaria viridis; conditions: application rate 80 g/ha, scored visually after about 3 weeks vs untreated controls (100% = plants have died, 0% = like control plants)
From the text: as §1

VERPE [21] = test: Pre-emergence herbicidal action against VERPE; format: in vivo, Veronica persica; conditions: application rate 80 g/ha
From the text: as §1

AVEFA [22] = test: Pre-emergence herbicidal action against AVEFA; format: in vivo, Avena fatua; conditions: application rate 80 g/ha, scored visually after about 3 weeks vs untreated controls (100% = plants have died, 0% = like control plants)
From the text: as §1

VERPE [23] = test: Post-emergence herbicidal action against VERPE; format: in vivo, Veronica persica; conditions: application rate 80 g/ha
How it was run: as §2

MATIN = test: Post-emergence herbicidal action against MATIN; format: in vivo, Matricaria inodora; conditions: application rate 80 g/ha, rated visually about 3 weeks after treatment
How it was run: as §2

PHBPU [24] = test: Post-emergence herbicidal action against PHBPU; format: in vivo, Pharbitis purpurea; conditions: application rate 80 g/ha, rated visually about 3 weeks after treatment
How it was run: as §2

ABUTH = test: Post-emergence herbicidal action against ABUTH; format: in vivo, Abutilon theophrasti; conditions: application rate 80 g/ha, rated visually about 3 weeks after treatment
How it was run: as §2

Row | SMILES | Herbicidal action against [%] STEME (STEME [1]) [%] | Herbicidal action against [%] POLCO (POLCO [2]) [%] | Herbicidal action against [%] ALOMY (ALOMY [4]) [%] | Herbicidal action against [%] SETVI (SETVI [5]) [%] | Herbicidal action against [%] STEME (STEME [7]) [%] | Herbicidal action against [%] AVEFA (AVEFA [8]) [%] | Herbicidal action against [%] HORMU (HORMU [11]) [%] | Herbicidal action against [%] ALOMY (ALOMY [12]) [%] | Herbicidal action against [%] AMARE (AMARE [13]) [%] | Herbicidal action against [%] LOLRI (LOLRI [15]) [%] | Herbicidal action against [%] VIOTR (VIOTR [16]) [%] | Herbicidal action against [%] ECHCG (ECHCG [19]) [%] | also measured
1 | CC1(C(=O)NC2C=CC(C(=O)NS(C)(=O)=O)C2)CC(c2cccc(F)c2)=NO1 (mixture of isomers) [II-13] | 100 | – | – | – | – | – | – | – | – | – | – | – | –
2 | CN(C)NC(=O)C1=CCC(NC(=O)C2(C)CC(c3cccc(F)c3)=NO2)C1 (mixture of isomers) [IV-06] | 90 | 80 | 90 | 80 | 80 | 90 | 90 | 100 | 80 | 80 | 90 | 80 | Herbicidal action against [%] PHBPU (PHBPU [3]): 90%; Herbicidal action against [%] VIOTR (VIOTR [6]): 100%; Herbicidal action against [%] POLCO (POLCO [9]): 80%; Herbicidal action against [%] ECHCG (ECHCG [10]): 90%; Herbicidal action against [%] AMARE (AMARE [14]): 80%; Herbicidal action against [%] LOLRI (LOLRI [17]): 100%; Herbicidal action against [%] HORMU (HORMU [18]): 90%; Herbicidal action against [%] SETVI (SETVI [20]): 100%
3 | COC(=O)C1=CC[C@@H](NC(=O)C2(C)CC(c3cccc(F)c3)=NO2)C1 (mixture of isomers) [III-03, methyl (4R)-4-[[[(5SR)-3-(3-fluorophenyl)-5-methyl-4H-1,2-oxazol-5-yl]carbonyl]amino]cyclopentene-1-carboxylate] | – | – | – | – | – | 90 | 90 | – | – | 80 | – | – | Herbicidal action against [%] VERPE (VERPE [21]): 80%
4 | CN(C)C(=O)C1=CCC(NC(=O)C2(C)CC(c3cccc(F)c3)=NO2)C1 (mixture of isomers) [IV-01] | 90 | – | – | – | – | – | – | 90 | – | – | – | – | Herbicidal action against [%] POLCO (POLCO [9]): 90%; Herbicidal action against [%] AMARE (AMARE [14]): 90%; Herbicidal action against [%] LOLRI (LOLRI [17]): 100%; Herbicidal action against [%] HORMU (HORMU [18]): 90%; Herbicidal action against [%] AVEFA (AVEFA [22]): 90%; Herbicidal action against [%] SETVI (SETVI [20]): 90%
5 | CONC(=O)C1=CC[C@@H](NC(=O)C2(C)CC(c3cccc(F)c3)=NO2)C1 (mixture of isomers) [IV-03, (5SR)-3-(3-Fluorophenyl)-N-[(1R)-3-[(methoxyamino)carbonyl]cyclopent-3-en-1-yl]-5-methyl-4H-1,2-oxazole-5-carboxamide] | – | – | – | – | – | – | – | 90 | – | 90 | – | – | –
6 | CCOC(=O)C1=CC[C@@H](NC(=O)C2(C)CC(c3cccc(F)c3)=NO2)C1 (stereo partly drawn) [III-05] | – | – | – | – | – | – | 90 | – | – | 80 | – | – | Herbicidal action against [%] HORMU (HORMU [18]): 80%
7 | CC(C)ONC(=O)[C@H]1C=C[C@@H](NC(=O)C2(C)CC(c3cccc(F)c3)=NO2)C1 (stereo partly drawn) [II-05] | 90 | – | – | – | – | – | – | – | – | – | – | – | –
8 | CN(C)NC(=O)C1=CCC(NC(=O)C2(C)CC(c3cccc(F)c3)=NO2)C1 (mixture of isomers) [IV-05] | 90 | – | – | – | – | – | – | 80 | – | – | – | – | Herbicidal action against [%] VIOTR (VIOTR [6]): 100%; Herbicidal action against [%] AVEFA (AVEFA [22]): 80%
9 | CCOC(=O)[C@H]1C=C[C@@H](NC(=O)C2(C)CC(c3cccc(F)c3)=NO2)C1 (stereo partly drawn) [Example I-005] | – | – | – | – | – | – | – | – | – | – | – | – | Herbicidal action against [%] AMARE (AMARE [14]): 80%
10 | CCOC(=O)C1C=CC(NC(=O)C2(C(F)(F)F)CC(c3cc(Cl)cc(Cl)c3)=NO2)C1 (mixture of isomers) [Example I-038] | – | 80 | 90 | 90 | 90 | 100 | 80 | – | 80 | 90 | 80 | 80 | Herbicidal action against [%] VERPE (VERPE [23]): 90%; Herbicidal action against [%] MATIN (MATIN): 90%; Herbicidal action against [%] PHBPU (PHBPU [24]): 80%; Herbicidal action against [%] ABUTH (ABUTH): 80%
11 | CCONC(=O)[C@H]1C=C[C@@H](NC(=O)C2(C)CC(c3cccc(F)c3)=NO2)C1 (stereo partly drawn) [II-03] | – | – | – | – | – | – | – | – | – | – | – | – | Herbicidal action against [%] VIOTR (VIOTR [6]): 90%
12 | C=CC1(C(=O)NC2C=CC(C(=O)O)C2)CC(c2cc(F)cc(F)c2)=NO1 (mixture of isomers) [Example I-037] | – | 90 | 90 | 90 | 90 | 90 | 90 | – | 90 | 90 | 90 | 90 | Herbicidal action against [%] VERPE (VERPE [23]): 90%; Herbicidal action against [%] MATIN (MATIN): 80%; Herbicidal action against [%] PHBPU (PHBPU [24]): 80%; Herbicidal action against [%] ABUTH (ABUTH): 90%
13 | CONC(=O)C1=CCC(NC(=O)C2(C)CC(c3cccc(F)c3)=NO2)C1 (mixture of isomers) [IV-04] | 90 | 80 | 90 | 80 | 80 | 90 | 90 | 90 | 80 | 90 | 80 | 80 | Herbicidal action against [%] ECHCG (ECHCG [10]): 90%; Herbicidal action against [%] AMARE (AMARE [14]): 90%; Herbicidal action against [%] LOLRI (LOLRI [17]): 100%; Herbicidal action against [%] HORMU (HORMU [18]): 90%; Herbicidal action against [%] AVEFA (AVEFA [22]): 90%; Herbicidal action against [%] SETVI (SETVI [20]): 100%
14 | COC(=O)C1C=CC(NC(=O)C2(C(F)(F)F)CC(c3cc(F)cc(F)c3)=NO2)C1 (mixture of isomers) [Example I-063] | – | 90 | 90 | 90 | 90 | 100 | 90 | – | 90 | 100 | 80 | 90 | Herbicidal action against [%] VERPE (VERPE [23]): 80%; Herbicidal action against [%] MATIN (MATIN): 90%; Herbicidal action against [%] PHBPU (PHBPU [24]): 80%; Herbicidal action against [%] ABUTH (ABUTH): 90%
